“Also recorded” adds a separate entry of the source. Counter-ions that a name gives are not always drawn.
Key:
Assay type in all cases: physicochemical
Evolocumab = assay: Viscosity of Evolocumab formulated in acetate buffer pH 5.0 with single excipients (mVROC microfluidic viscometer, 20° C.); details: for viscosity of the formulation: Evolocumab 196 mg/ml, 150 mM pyridoxine, thiamine hydrochloride or ascorbic acid, 75 mM Paracetamol; for viscosity of the formulation / viscosity of a Evolocumab formulation: pH 5.0; for viscosity reducing effect compared among the excipients: Evolocumab pH 5.0, 150 mM excipient, data set with concentration by absorption spectroscopy; for viscosity for Evolocumab formulations: pH 5.0, 150 mM excipient
Description: 20 mM Acetate buffer was prepared by mixing 1.2 mg/ml glacial acetic acid with ultrapure water. pH was adjusted to 5.0 using HCl and NaOH if necessary. 0.1 mg/ml Polysorbate 80 was added as stabilizer
Excipient solutions of 150 mM leucine, isoleucine, phenylalanine, ascorbic acid, pyridoxine, proline, lysine, guanidine hydrochloride, thiamine hydrochloride, thiamine monophosphate were prepared in acetate buffer pH 5.0, respectively. Similarly, 25 mM quinine hydrochloride and 5 mM cyanocobalamin were prepared, respectively. Paracetamol and thiamine pyrophosphate were prepared with a concentration of 75 mM. The pH was adjusted using HCl or NaOH, if necessary.
When excipients themselves have a strong absorbance at 280 nm a Bradford-Assay was used.
The mVROC™ Technology (Rheo Sense, San Ramon, Calif. USA) was used for viscosity measurements.
A volume of 200 μl was used. All samples were measured as triplicates.

Infliximab [1] = assay: Viscosity of Infliximab formulated in phosphate buffer pH 7.2 with single excipients (mVROC microfluidic viscometer, 20° C.); details: for viscosity reducing effect on the Infliximab solution: protein concentrations 152 mg/ml and 185 mg/ml, 150 thiamine hydrochloride, thiamine monophosphate
Description: Individual excipient solutions of 150 mM valine, leucine, phenylalanine, ascorbic acid, pyridoxine, proline and thiamine monophosphate were prepared in phosphate buffer pH 7.2. In the same buffer, a 5 mM solution of cyanocobalamin was prepared. Folic acid was prepared in a 13 mM concentration in phosphate puffer pH 7.2. Thiamine pyrophosphate was prepared in a 75 mM concentration in phosphate puffer pH 7.2. The pH was adjusted using HCl or NaOH where necessary.
For absorption spectroscopy, the absorbance at 280 nm was measured using a BioSpectrometer® kinetic (Eppendorf, Hamburg, Germany) with a protein extinction coefficient of A0.1%, 280 nm=1.428.
The mVROC™ Technology (Rheo Sense, San Ramon, Calif., USA) was used for viscosity measurements.
Measurements were performed at 20° C. using a 500 μl syringe and a shear rate of 3000 s-1. A volume of 200 μl was used. All samples were measured as triplicates.
Results of viscosity measurements regarding these experiments can be seen in FIG. 1, FIG. 2 and FIG. 3.

Infliximab [2] = assay: Thermal stability (Tm, Tagg) of Infliximab in phosphate buffer pH 7.2 by nano-DSF; details: Infliximab pH 7.2, change versus control; for aggregation onset temperature Tagg: 150 mM excipient; for thermodynamic transition temperature characterizing heat induced protein unfolding (Tm): 150 mM valine, leucine, ascorbic acid or proline, 5 mM cyanocobalamin
Description: 2.1 Thermal Stability of Infliximab Formulated in Phosphate Buffer pH 7.2 Containing Valine, Leucine, Ascorbic Acid, Cyanocobalamin and Proline as Single Excipients
Buffers and samples were prepared as described under 1.1.
The nano-DSF Technology of a Prometheus system (NanoTemper Technologies GmbH, Munich, Germany) was used to determine melting points and aggregation points.
Fluorescence was measured at 330 and 350 nm as well as the backscattering intensity over a temperature range from 20 to 95° C. with an incline of 1° C./min.
Buffers and samples were prepared as described under 1.4 and 1.5.
Thermal stability measurements were performed as described under 2.1.

[3] = 5 mM cyanocobalamin, 25 mM quinine hydrochloride
[4] = protein concentration 180 mg/ml (Bradford assay), 150 mM pyridoxine or thiamine hydrochloride, 5 mM cyanocobalamin, 25 mM quinine hydrochloride, 75 mM paracetamol
[5] = protein concentration 122 mg/ml (absorption spectroscopy), pH 7.2, 150 mM excipient, versus no excipient
[6] = protein concentration 143 mg/ml, pH 7.2, 150 mM excipient, versus no excipient
[7] = higher protein concentration of 192 mg/ml
[8] = protein concentration 192 mg/ml (first mention, absorption spectroscopy)
[9] = protein concentration 149 mg/ml, 150 mM pyridoxine, thiamine hydrochloride or thiamine monophosphate, 5 mM cyanocobalamin, 13 mM folic acid, 75 mM thiamine pyrophosphate
[10] = protein concentration 174 mg/ml, 150 mM pyridoxine, ascorbic acid, thiamine hydrochloride or thiamine phosphate, 5 mM cyanocobalamin, 13 mM folic acid, 75 mM thiamine pyrophosphate, versus formulation without excipients
[11] = third data set, 75 mM thiamine pyrophosphate, 150 mM thiamine hydrochloride, thiamine monophosphate (thiamine monophosphate only at 180 mg/ml)

Compound	viscosity of the formulation (Evolocumab; [3])	viscosity of a Evolocumab formulation (Evolocumab; [4])	viscosity for Evolocumab formulations (Evolocumab; [7])	viscosity for Evolocumab formulations (Evolocumab; [8])	thermodynamic transition temperature characterizing heat induced protein unfolding (Tm) (Infliximab [2])	viscosity of the formulation (Infliximab [1]; [9])	viscosity of the formulation (Infliximab [1]; [10])	also measured
C=C[C@H]1C[N@@]2CC[C@H]1C[C@H]2[C@H](O)c1ccnc2ccc(OC)cc12 [quinine hydrochloride, (R)-[(1S,2S,4S,5R)-5-ethenyl-1-azabicyclo[2.2.2]octan-2-yl](6-methoxyquinolin-4-yl)methanol dihydrate hydrochloride, reference compound]	reduced the viscosity of the formulation	reduced viscosity of the formulation						
CC(C)C[C@H](N)C(=O)O [leucine]			reduced viscosity	reduced viscosity	increase			viscosity of the formulation (Infliximab [1]; [5]): reduced the viscosity of the formulation; viscosity of the formulation (Infliximab [1]; [6]): reduced viscosity of the formulation; viscosity reducing effect compared among the excipients (Evolocumab): most pronounced viscosity reducing effect; aggregation onset temperature Tagg (Infliximab [2]): increase
CC(C)[C@H](N)C(=O)O [valine]					increase			viscosity of the formulation (Infliximab [1]; [5]): reduced the viscosity of the formulation; aggregation onset temperature Tagg (Infliximab [2]): increase
Cc1ncc(C[n+]2csc(CCOP(=O)(O)O)c2C)c(N)n1 [thiamine monophosphate]						reduce the viscosity of the formulation	high viscosity reducing potential	viscosity of the formulation (Infliximab [1]; protein concentration 174 mg/ml, 150 mM pyridoxine, ascorbic acid, thiamine hydrochloride or thiamine phosphate, 5 mM cyanocobalamin, 13 mM folic acid, 75 mM thiamine pyrophosphate, versus formulation without excipients, listed as thiamine phosphate): viscosity reducing effect; viscosity reducing effect on the Infliximab solution (Infliximab [1]; 75 mM thiamine pyrophosphate): strong viscosity reducing effect; viscosity of a Evolocumab formulation (Evolocumab; [11]): reduced the viscosity
Cc1ncc(C[n+]2csc(CCO[P@](=O)(O)OP(=O)(O)O)c2C)c(N)n1 [thiamine pyrophosphate]						reduce the viscosity of the formulation	reduce the viscosity of the formulation	viscosity reducing effect on the Infliximab solution (Infliximab [1]; 75 mM thiamine pyrophosphate): strong viscosity reducing effect; viscosity reducing efficiency (Evolocumab; formulations with 179 mg/ml and 204 mg/ml Evolocumab, 75 mM excipient): highly efficient; viscosity of a Evolocumab formulation (Evolocumab; [11]): reduced the viscosity
O=C1O[C@H]([C@@H](O)CO)C(O)=C1O [ascorbic acid]	reduced viscosity of the formulation				increase		viscosity reducing effect	aggregation onset temperature Tagg (Infliximab [2]): increase
NCCCC[C@H](N)C(=O)O [lysine]			reduced viscosity	reduced viscosity				viscosity reducing effect compared among the excipients (Evolocumab): most pronounced viscosity reducing effect
N[C@@H](Cc1ccccc1)C(=O)O [phenylalanine]			reduced viscosity	reduced viscosity				viscosity of the formulation (Infliximab [1]; [5]): reduced the viscosity of the formulation; viscosity of the formulation (Infliximab [1]; [6]): reduced viscosity of the formulation; also recorded: most efficient viscosity reducing excipient
N=C(N)N [guanidine hydrochloride, carbamimidoylazanium chloride]			reduced viscosity	reduced viscosity				viscosity reducing effect compared among the excipients (Evolocumab): most pronounced viscosity reducing effect
Cc1ncc(C[n+]2csc(CCO)c2C)c(N)n1 [thiamine hydrochloride]		reduced						viscosity of the formulation (Infliximab [1]; protein concentration 149 mg/ml, 150 mM pyridoxine, thiamine hydrochloride or thiamine monophosphate, 5 mM cyanocobalamin, 13 mM folic acid, 75 mM thiamine pyrophosphate, hydrochloride): reduce the viscosity of the formulation; also recorded: high viscosity reducing potential; viscosity of the formulation (Infliximab [1]; protein concentration 174 mg/ml, 150 mM pyridoxine, ascorbic acid, thiamine hydrochloride or thiamine phosphate, 5 mM cyanocobalamin, 13 mM folic acid, 75 mM thiamine pyrophosphate, versus formulation without excipients, hydrochloride): high viscosity reducing potential; viscosity of the formulation (Infliximab [1]; protein concentration 174 mg/ml, 150 mM pyridoxine, ascorbic acid, thiamine hydrochloride or thiamine phosphate, 5 mM cyanocobalamin, 13 mM folic acid, 75 mM thiamine pyrophosphate, versus formulation without excipients, listed as thiamine hydrochoride, hydrochloride): viscosity reducing effect; viscosity reducing effect on the Infliximab solution (Infliximab [1]; 75 mM thiamine pyrophosphate): strong viscosity reducing effect; viscosity of the formulation (Evolocumab; 5 mM cyanocobalamin, 25 mM quinine hydrochloride, hydrochloride): reduced viscosity of the formulation; also recorded: most efficient viscosity reducing excipient; viscosity of a Evolocumab formulation (Evolocumab; [11]): reduced the viscosity
O=C(O)[C@@H]1CCCN1 [proline]			reduced viscosity		increase			viscosity of the formulation (Infliximab [1]; [5]): reduced the viscosity of the formulation; viscosity of the formulation (Infliximab [1]; [6]): reduced viscosity of the formulation; aggregation onset temperature Tagg (Infliximab [2]): increase
cyanocobalamin	reduced the viscosity of the formulation	reduced viscosity of the formulation			increase	reduce the viscosity of the formulation	reduce the viscosity of the formulation	
Nc1nc2ncc(CNc3ccc(C(=O)N[C@@H](CCC(=O)O)C(=O)O)cc3)nc2c(=O)[nH]1 [folic acid]						reduce the viscosity of the formulation	reduce the viscosity of the formulation	
Cc1ncc(CO)c(CO)c1O [pyridoxine]	reduced viscosity of the formulation	reduced				reduce the viscosity of the formulation	viscosity reducing effect	
CC[C@H](C)[C@H](N)C(=O)O [isoleucine]			reduced viscosity	reduced viscosity				
CC(=O)Nc1ccc(O)cc1 [paracetamol, reference compound]	reduced the viscosity of the formulation	reduced viscosity of the formulation						

From patent US20230279146A1, “VISCOSITY REDUCING EXCIPIENTS AND COMBINATIONS THEREOF FOR HIGHLY CONCENTRATED PROTEIN FORMULATIONS” (Merck Patent GmbH, priority 2020, published 2023)
